# Experimental data reported in patent US4191738A, “Immunoassay for N-desmethyldiazepam” (Hoffmann-La Roche Inc., priority 1978, dated 1980).
# Where “and” joins values, the source holds several entries; their conditions need not be identical. Equal values may be shown once.
# Assays:
# [1] = system: antiserum to N-desmethyldiazepam; experiment: RIA cross-reactivity with the antiserum to N-desmethyldiazepam; type: binding, New Zealand white rabbit; conditions: for % Cross-reaction: determined at 50% inhibition of antibody-bound ^3 H-N-desmethyldiazepam; for interference (cross-reactivity in words): RIA antiserum to N-desmethyldiazepam
# Method: (§1) Two New Zealand white rabbits were immunized by intradermal injection of the immunogen as an emulsion in Freund's complete adjuvant (1 mg/ml) using the protocol of Dixon et al. supra. The animals were then boosted at monthly intervals by intravenous and subcutaneous injection of 100 μg of the immunogen as a solution in isotonic saline via both routes. Serum was harvested at 10 to 14 days following each booster and stored at -20° C.
# The assay was carried out in 12×75 mm glass tubes using 0.01 M Tris buffer (pH 7.5) containing 0.9% NaCl and 0.1% sodium azide. A calibration curve was generated by addition of ^3 H-N-desmethyldiazepam (15,000 cpm) in 0.5 ml of buffer to tubes containing 0.5 to 20 ng of unlabelled N-desmethyldiazepam in 50 μl of control plasma or blood followed by 0.4 ml of suitably diluted antiserum. Appropriate controls were included to determine nonspecific (i.e. absence of antiserum) and specific binding of the tracer. Following incubation at room temperature for 0.5 to 1 hr, an equal volume (1 ml) of saturated ammonium sulfate (adjusted to pH 7.5 with 5 N NaOH) was added to precipitate antibody-bound radioligand. The mixture was vortexed and after standing for 10 min at 4° C. in a refrigerated centrifuge, the tubes were centrifuged at 2500×g for 20 min. The supernate was removed by aspiration and the precipitate, containing the antibody-bound radioligand, dissolved in 0.4 ml of water. (When whole blood samples were assayed, the precipitate was washed twice with 1 ml of 50% saturated ammonium sulfate prior to its dissolution in water. This procedure removed virtually all of the heme proteins which might otherwise interfere with the subsequent liquid scintillation counting procedure.) After the addition of 3 ml of Aquasol (New England Nuclear, Boston, Mass. 02118) each tube was vortexed immediately to give a clear solution, capped with a Caplug (size 5X, Protective Closures Co., Inc., Buffalo, N.Y. 14207) and the tube counted directly as described by Dixon and Cohen, Clin. Chem, 22, 1746 (1976) in a modified liquid scintillation counter (Packard Tri-Carb, Model 3255, Packard Instrument Co., Ill. 60515). The counting efficiency for tritium under these conditions was 32%.
# All samples were assayed in duplicate and the data calculated as outlined by Robard, Clin. Chem. 20, 1255 (1970) using a digital computer for iterative weighted linear regression analysis of logit B/Bo versus log dose where B and Bo are the amounts of antibody-bound radioligand in the presence and absence of unlabelled drug, respectively. Both B and Bo were corrected for nonspecific binding.
# The specificity of the RIA was established by determination of the extent of cross-reactivity of a number of potential competitors with the antiserum and by comparison of the RIA method with the EC-GC procedure of de Silva et al., Anal. Chem. 48, 10 (1976).
# *Determined at 50% inhibition of antibodybound ^3
# [2] = system: antibodies elicited by N-desmethyldiazepam-bovine gamma globulin conjugate; conditions: 3'-carboxypropyl linked conjugate, U.S. Pat. No. 4,046,636 Example 8; cited from earlier work
# [3] = system: antiserum to N-desmethyldiazepam; experiment: RIA calibration, binding of ^3 H-N-desmethyldiazepam to antiserum, sensitivity and precision; parameters: species or system New Zealand white rabbit
# Method: as §1
# The assay was carried out in 12×75 mm glass tubes using 0.01 M Tris buffer (pH 7.5) containing 0.9% NaCl and 0.1% sodium azide. […] (When whole blood samples were assayed, the precipitate was washed twice with 1 ml of 50% saturated ammonium sulfate prior to its dissolution in water. This procedure removed virtually all of the heme proteins which might otherwise interfere with the subsequent liquid scintillation counting procedure.) After the addition of 3 ml of Aquasol (New England Nuclear, Boston, Mass. 02118) each tube was vortexed immediately to give a clear solution, capped with a Caplug (size 5X, Protective Closures Co., Inc., Buffalo, N.Y. 14207) and the tube counted directly as described by Dixon and Cohen, Clin. Chem, 22, 1746 (1976) in a modified liquid scintillation counter (Packard Tri-Carb, Model 3255, Packard Instrument Co., Ill. […]
# [4] = cited from earlier work
Compound,% Cross-reaction [1],cross-reaction with prior-art antibodies [2],also measured
Nc1ccc2c(c1)C(c1ccccc1Cl)=NCC(=O)N2 [7-Aminoclonazepam],0.07%,,
CN(C)CCC=C1c2ccccc2CCc2ccccc21 [Amitriptyline],< 0.01%,,interference (cross-reactivity in words) [1]: negligible interference; % Cross-reaction ([1]; listed as amitriptyline): less than 1%
CNC1=Nc2ccc(Cl)cc2C(c2ccccc2)=[N+]([O-])C1 [Chlordiazepoxide],0.2%,cross-react strongly,% Cross-reaction ([1]; listed as chlordiazepoxide): less than 1%
O=C1CN=C(c2ccccc2Cl)c2cc([N+](=O)[O-])ccc2N1 [Clonazepam],0.3%,,interference (cross-reactivity in words) [1]: negligible interference; % Cross-reaction ([1]; listed as clonazepam): less than 1%
O=C(O)C1N=C(c2ccccc2)c2cc(Cl)ccc2NC1=O (stereo not shown) [Clorazepate],> 50%,,% Cross-reaction ([1]; listed as clorazepate): greater than 50%
O=C1C[N+]([O-])=C(c2ccccc2)c2cc(Cl)ccc2N1 [Demoxepam],0.6%,,% Cross-reaction ([1]; listed as demoxepam): less than 1%
CN1C(=O)CN=C(c2ccccc2)c2cc(Cl)ccc21 [Diazepam],0.6% and 0.5%,cross-react strongly,% Cross-reaction ([1]; listed as diazepam): less than 1%
O=C1CN=C(c2ccccc2)c2cc(Cl)ccc2N1 [N-desmethyldiazepam],100%,cross-react strongly,"inhibition of binding of the radioligand to the antiserum ([3]; 0.5 ng standard, plasma): greater than 10%"
CNCCC=C1c2ccccc2CCc2ccccc21 [Nortriptyline],< 0.01%,,
O=C1Nc2ccc(Cl)cc2C(c2ccccc2)=NC1O (stereo not shown) [Oxazepam],5.5%,cross-react strongly,presence in plasma as metabolite of diazepam and clorazepate [4]: negligible quantities
^3 H-N-desmethyldiazepam,,,"added radioligand bound by antiserum ([3]; 0.5 μl of antiserum, after second booster immunization): approximately 50%"
